Reference: paper PMC5517562, “Design and discovery of novel monastrol-1,3,5-triazines as potent anti-breast cancer agent via attenuating Epidermal Growth Factor Receptor tyrosine kinase” (Scientific Reports, 2017)

How the values were obtained:
EGFR-TK = target: T1, EGFR-TK (Homo sapiens, UniProt P00533); test: EGFR tyrosine kinase inhibitory activity (Kinase-Glo Plus luminescence); assay type: biochemical; conditions: at 10 µM; read-out: Percent of Inhibition, EGFR tyrosine kinase
T1 construct: 0.2 mg/mL Poly (Glu, Tyr) substrate, 10 mM ATP and EGFR
T1 sequence (P00533 25-1210): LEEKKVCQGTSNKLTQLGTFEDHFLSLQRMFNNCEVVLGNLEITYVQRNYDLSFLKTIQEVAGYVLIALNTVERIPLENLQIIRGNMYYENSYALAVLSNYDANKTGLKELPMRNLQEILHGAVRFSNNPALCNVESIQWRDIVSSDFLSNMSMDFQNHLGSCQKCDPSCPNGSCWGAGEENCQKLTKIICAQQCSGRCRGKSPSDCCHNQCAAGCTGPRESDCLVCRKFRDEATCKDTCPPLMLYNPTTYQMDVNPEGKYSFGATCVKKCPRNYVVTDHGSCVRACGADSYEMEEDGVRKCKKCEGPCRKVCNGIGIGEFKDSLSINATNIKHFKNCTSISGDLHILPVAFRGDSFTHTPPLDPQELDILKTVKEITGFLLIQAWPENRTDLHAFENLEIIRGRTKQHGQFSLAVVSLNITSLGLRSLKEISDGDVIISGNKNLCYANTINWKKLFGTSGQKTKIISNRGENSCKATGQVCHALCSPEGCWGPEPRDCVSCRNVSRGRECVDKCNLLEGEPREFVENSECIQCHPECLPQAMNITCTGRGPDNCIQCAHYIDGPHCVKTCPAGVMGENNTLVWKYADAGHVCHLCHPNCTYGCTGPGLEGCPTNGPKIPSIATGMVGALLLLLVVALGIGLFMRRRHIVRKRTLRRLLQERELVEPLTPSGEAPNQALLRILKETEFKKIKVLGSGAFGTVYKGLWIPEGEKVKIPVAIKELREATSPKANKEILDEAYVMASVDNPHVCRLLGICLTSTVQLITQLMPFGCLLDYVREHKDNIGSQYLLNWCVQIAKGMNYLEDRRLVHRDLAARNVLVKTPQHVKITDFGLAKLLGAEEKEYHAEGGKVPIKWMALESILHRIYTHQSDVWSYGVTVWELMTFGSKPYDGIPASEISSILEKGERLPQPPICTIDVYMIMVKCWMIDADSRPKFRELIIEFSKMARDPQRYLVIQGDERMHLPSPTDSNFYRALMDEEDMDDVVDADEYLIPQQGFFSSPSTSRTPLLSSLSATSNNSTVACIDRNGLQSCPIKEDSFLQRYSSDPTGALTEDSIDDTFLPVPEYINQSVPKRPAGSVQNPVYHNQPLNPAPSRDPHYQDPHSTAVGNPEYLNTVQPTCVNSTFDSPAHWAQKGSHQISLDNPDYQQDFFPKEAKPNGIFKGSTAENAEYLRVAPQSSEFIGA
Description: Kinase activity was determined using Kinase-Glo Plus luminescence kinase assay kit, by quantitating the amount of ATP remaining in the solution of kinase reaction. The luminescent signal is correlated with the residual amount present and it was inversely related with kinase activity. The tested compounds were diluted to 100 mM in 10% DMSO, then […] of the dilution was added to a 50 mL reaction. All of the enzymatic reactions were performed at 30 °C for 40 min, 50 mL of reaction mixture contains 10 mM MgCl2, 40 mM Tris, pH 7.4, 0.1 mg/mL BSA, 0.2 mg/mL Poly (Glu, Tyr) substrate, 10 mM ATP and EGFR. Incubate the plate for 5 min at r.t. then add 50 mL of Kinase-GloPlus Luminescence kinase assay to each reaction. ADP-Glo assay kit is the protein kinase assays used to determine IC50 values in which ADP generation was measured as it leads to an increase in luminescence signal. The reaction mixture was incubated in a 96-well plate at 30 °C for 30 min, after the incubation period add 25 mL of ADP-Glo reagent to terminate the assay. Shake the 96-well plate for 30 min at ambient temperature then incubate it, then add 50 mL of kinase detection reagent. Read the 96-well plate using the ADP-Glo Luminescence reader. All the assay components were added to the blank control except the substrate. By removing the blank control value you can obtain the corrected activity for each protein kinase target.

[1] = system: p-EGFR and p-Akt levels of MCF-7; test: Western blot of EGFR activation and downstream signalling in MCF-7; assay type: cell-based, human; conditions: immunoblotting, concentration-dependent
Description: However, despite of excellent inhibitory activity of 7l against the EGFR-TK, its mechanism behind this phenomena has not been elucidate till now, thus, in this part of the study, we are interested in exploring the effect of compound 7l on the activation and downstream signalling pathway of the EGFR. Towards this, the effect of 7l has been determined on the expression of p-EGFR and EGFR, p-Akt and Akt levels of MCF-7 by immunoblotting experiments. Results as presented in Fig. 14 confirmed the effect of 7l on the expression of p-EGFR and p-Akt. […] Results clearly indicate the ability of 7l to inhibit the phosphorylation of EGFR which in turn decreases Akt (the downstream target protein of p-EGFR).
After incubation with the test compound, the cells were harvested and washed with PBS, and then lysed in lysis buffer. After centrifugation at 12,000 × g for 5 min, the supernatant was collected as total protein. The concentration of the protein was determined by a protein assay kit. The protein samples were separated by 10% SDS–PAGE and subsequently electro-transferred onto a PVDF (Millipore, Bedford, MA, USA). […] The antibodies were purchased from Cell Signaling Technology (MA, USA) Thus, the expression of p-EGFR, EGFR, p-Akt (pS473) and Akt were visualized by enhanced chemiluminescence (ECL) (Thermofischer Scientific Inc. USA) kit and band intensity was analyzed by image j software.

inhibition at 10 µM (EGFR-TK): 96.4%
SMILES: CCOC(=O)C1=C(C)N(c2nc(Nc3cccc(F)c3)nc(Nc3cccc(F)c3)n2)C(=S)NC1c1ccc(F)cc1 (stereo not drawn) [7l, Ethyl 1-(4,6-bis((3-fluorophenyl)amino)-1,3,5-triazin-2-yl)-4-(4-fluorophenyl)-6-methyl-2-thioxo-1,2,3,4-tetrahydropyrimidine-5-carboxylate]
Level of p-Akt [1]: significantly reduced
Level of p-EGFR [1]: significantly reduced
